Molecular target: T1, dephosphocoenzyme A kinase (CoaE) (Mycobacterium tuberculosis, UniProt P9WPA3)
T1 sequence (P9WPA3 1-407): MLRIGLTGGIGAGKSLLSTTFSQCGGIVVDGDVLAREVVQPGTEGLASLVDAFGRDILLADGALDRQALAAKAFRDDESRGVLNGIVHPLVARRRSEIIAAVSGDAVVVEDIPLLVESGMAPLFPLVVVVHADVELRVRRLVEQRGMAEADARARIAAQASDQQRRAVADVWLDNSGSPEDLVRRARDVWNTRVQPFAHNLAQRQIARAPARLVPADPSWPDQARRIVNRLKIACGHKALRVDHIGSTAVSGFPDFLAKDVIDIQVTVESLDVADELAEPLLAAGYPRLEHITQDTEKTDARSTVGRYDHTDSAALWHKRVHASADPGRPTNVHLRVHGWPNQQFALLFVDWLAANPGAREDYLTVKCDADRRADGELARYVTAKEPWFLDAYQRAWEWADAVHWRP
Experiment: coupled PK-LDH spectrophotometric assay, Dixon plot; supported by tryptophan fluorescence quenching, SEC and limited proteolysis
Format: biochemical

Nc1ccn([C@@H]2O[C@H](COP(=O)(O)OP(=O)(O)OP(=O)(O)O)[C@@H](O)[C@H]2O)c(=O)n1 [CTP]
Ki: 34 µM
